In data set [1] the target is T1, LasB (Pseudomonas aeruginosa, UniProt Q02RJ6). The note with it: Figure 1; read-out: IC50 (reported LasB inhibitors, Figure 1); cited from earlier work.
Data set [2] relates to A549 cells treated with wt PA14 supernatant. In words: cells. The note with it: Homo sapiens, A549, 24 h, read-out: increase in viability of A549 cells.
For data set [3] the test system is unchanged. The note with it: 15% (v/v) wt PA14 supernatant, MTT.
Another data set deals with G. mellonella larvae. In words: In vivo Galleria mellonella virulence assay. The note with it: compound with wt PA14 supernatant, after 6 days.
In a further data set the target is MMP-8 (Homo sapiens, UniProt P22894). Nature of the data set: Human off-target inhibition assay, MMP-8. In kind it is biochemical.
Sequence of MMP-8 (P22894 101-467): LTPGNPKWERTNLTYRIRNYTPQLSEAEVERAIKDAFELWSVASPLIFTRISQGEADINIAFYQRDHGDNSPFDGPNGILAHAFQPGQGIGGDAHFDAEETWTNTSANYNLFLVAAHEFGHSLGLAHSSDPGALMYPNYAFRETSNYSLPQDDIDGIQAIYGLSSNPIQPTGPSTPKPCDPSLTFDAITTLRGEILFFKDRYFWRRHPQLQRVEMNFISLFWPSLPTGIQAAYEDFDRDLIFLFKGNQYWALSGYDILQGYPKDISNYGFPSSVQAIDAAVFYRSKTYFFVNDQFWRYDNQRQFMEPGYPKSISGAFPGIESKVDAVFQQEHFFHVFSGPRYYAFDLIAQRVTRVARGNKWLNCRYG
Another data set addresses T2, MMP-1 (Homo sapiens, UniProt P03956).
T2 sequence (P03956 100-469): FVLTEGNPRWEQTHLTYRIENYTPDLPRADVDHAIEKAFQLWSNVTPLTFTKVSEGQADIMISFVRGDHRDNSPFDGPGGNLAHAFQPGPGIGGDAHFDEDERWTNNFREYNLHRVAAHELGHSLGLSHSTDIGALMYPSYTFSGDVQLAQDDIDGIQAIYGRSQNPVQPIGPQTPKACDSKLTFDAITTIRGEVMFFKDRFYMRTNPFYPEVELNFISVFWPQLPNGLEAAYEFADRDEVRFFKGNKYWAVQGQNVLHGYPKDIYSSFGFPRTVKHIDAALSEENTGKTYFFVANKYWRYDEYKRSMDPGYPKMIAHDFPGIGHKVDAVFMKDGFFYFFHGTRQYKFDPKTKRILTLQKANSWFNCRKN
Nature of the data set: Human off-target inhibition assay, MMP-1. The format is biochemical.

The nature of a further data set: Cytotoxicity assay, A549. In kind it is cell-based. The note with it: A549 cells; adenocarcinomic human alveolar basal epithelial cells.
For the next data set, the target named is HDAC-3 (Homo sapiens, UniProt O15379). In words: Human off-target inhibition assay, HDAC-3. In kind it is biochemical. The protocol:
(§1) Table 3 Activities of Four LasB Inhibitors against the Selected MMPs (% of inhibition at 100 μM) and Further Human Off-Targets ^a | column: 3; 12; 13; 23

The nature of data set [4]: Cytotoxicity assay, HepG2. The format is cell-based. The note with it: HepG2 cells; human hepatoma cell line.
In data set [5] the test system is A549 cells treated with ΔlasB PA14 supernatant. The format is cell-based, human. The note with it: 15% (v/v) ΔlasB PA14 supernatant, MTT.
The nature of data set [6]: Cytotoxicity assay, HEK293. The format is cell-based. The note with it: HEK293 cells; human embryonic kidney cells.
For the next data set, the target named is T3, MMP-2 (Homo sapiens, UniProt P08253).
T3 sequence (P08253 110-660): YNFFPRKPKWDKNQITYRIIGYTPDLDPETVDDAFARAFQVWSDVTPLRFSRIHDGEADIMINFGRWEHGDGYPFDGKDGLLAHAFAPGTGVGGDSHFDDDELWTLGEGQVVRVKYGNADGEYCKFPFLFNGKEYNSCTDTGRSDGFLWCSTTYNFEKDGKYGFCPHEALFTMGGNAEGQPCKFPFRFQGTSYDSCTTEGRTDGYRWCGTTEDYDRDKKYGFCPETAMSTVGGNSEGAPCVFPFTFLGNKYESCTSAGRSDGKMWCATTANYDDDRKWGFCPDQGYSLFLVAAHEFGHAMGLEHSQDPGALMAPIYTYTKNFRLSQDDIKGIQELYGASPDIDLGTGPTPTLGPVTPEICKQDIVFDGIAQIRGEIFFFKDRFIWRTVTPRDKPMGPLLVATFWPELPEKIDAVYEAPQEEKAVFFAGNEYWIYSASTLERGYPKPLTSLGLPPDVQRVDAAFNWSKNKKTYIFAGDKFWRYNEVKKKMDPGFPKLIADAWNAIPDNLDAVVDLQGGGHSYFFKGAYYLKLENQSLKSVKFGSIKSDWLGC
Nature of the data set: Human off-target inhibition assay, MMP-2. In kind it is biochemical.

A further data set deals with P. aeruginosa PA14. Nature of the data set: Antibacterial activity (MIC) assay. In kind it is cell-based, Pseudomonas aeruginosa.
In another data set the target is MMP-3 (Homo sapiens, UniProt P08254). Nature of the data set: Human off-target inhibition assay, MMP-3. In kind it is biochemical.
Sequence of MMP-3 (P08254 100-477): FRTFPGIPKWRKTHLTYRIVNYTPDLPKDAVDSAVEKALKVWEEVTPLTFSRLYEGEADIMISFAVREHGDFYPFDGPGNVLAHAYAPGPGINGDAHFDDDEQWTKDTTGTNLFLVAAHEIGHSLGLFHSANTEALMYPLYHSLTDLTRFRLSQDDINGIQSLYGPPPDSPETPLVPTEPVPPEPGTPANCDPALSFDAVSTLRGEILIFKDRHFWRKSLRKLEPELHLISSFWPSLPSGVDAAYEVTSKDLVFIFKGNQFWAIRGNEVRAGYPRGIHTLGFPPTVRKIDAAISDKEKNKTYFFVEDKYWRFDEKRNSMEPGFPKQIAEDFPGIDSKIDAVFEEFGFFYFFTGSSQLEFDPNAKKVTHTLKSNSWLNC
The target of the next data set is ColH-PD (Hathewaya histolytica, UniProt Q46085). Nature of the data set: biochemical. More on the design: species or system C. histolyticum.
Sequence of ColH-PD (Q46085 331-721 limits assumed): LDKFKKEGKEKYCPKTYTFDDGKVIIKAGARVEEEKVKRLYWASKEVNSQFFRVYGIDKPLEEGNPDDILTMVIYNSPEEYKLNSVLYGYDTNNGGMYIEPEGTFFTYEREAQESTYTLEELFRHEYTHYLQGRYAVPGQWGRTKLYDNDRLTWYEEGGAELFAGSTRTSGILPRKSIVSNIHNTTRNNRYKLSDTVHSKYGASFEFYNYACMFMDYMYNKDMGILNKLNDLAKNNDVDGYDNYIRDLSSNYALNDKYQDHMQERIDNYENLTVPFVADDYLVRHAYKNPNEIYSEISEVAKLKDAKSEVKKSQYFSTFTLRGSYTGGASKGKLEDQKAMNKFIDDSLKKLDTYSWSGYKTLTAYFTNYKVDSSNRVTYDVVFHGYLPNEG
The next data set concerns zebrafish embryos. In words: Zebrafish embryo toxicity (maximum tolerated concentration) assay. The format is in vivo.
The target of another data set is T4, HDAC-8 (Homo sapiens, UniProt Q9BY41).
T4 sequence (Q9BY41 1-377): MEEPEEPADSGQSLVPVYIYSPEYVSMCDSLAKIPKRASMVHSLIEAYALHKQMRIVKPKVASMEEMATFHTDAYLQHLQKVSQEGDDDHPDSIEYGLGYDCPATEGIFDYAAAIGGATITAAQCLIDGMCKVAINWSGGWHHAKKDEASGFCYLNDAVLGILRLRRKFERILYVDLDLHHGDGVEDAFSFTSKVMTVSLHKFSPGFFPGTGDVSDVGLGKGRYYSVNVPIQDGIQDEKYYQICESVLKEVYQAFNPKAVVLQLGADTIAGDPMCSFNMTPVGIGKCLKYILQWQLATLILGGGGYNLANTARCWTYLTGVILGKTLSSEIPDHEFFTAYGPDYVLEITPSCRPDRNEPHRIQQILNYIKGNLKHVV
In words: Human off-target inhibition assay, HDAC-8. In kind it is biochemical. Here is the method:
as §1

In data set [7] the target is T1, LasB. In words: LasB inhibition assay (FRET-based, in vitro). The note with it: for activity of pure LasB: 0.3 nM pure LasB.
Method: LasB Inhibition Assay. The purification of LasB from P. aeruginosa P14 supernatant as well
as the subsequent performance of the FRET-based in vitro inhibition assay was performed as
described previously.1 All samples were run in duplicate for each condition, and experiments
were performed independently at least twice.
The target in the next data set is MMP-14 (Homo sapiens, UniProt P50281). In words: Human off-target inhibition assay, MMP-14. In kind it is biochemical.
The next data set concerns the target ADAM17 (Homo sapiens, UniProt P78536). Nature of the data set: Human off-target inhibition assay, ADAM17 (TACE). In kind it is biochemical.
The target in a further data set is T5, MMP-7 (Homo sapiens, UniProt P09237).
T5 sequence (P09237 95-267): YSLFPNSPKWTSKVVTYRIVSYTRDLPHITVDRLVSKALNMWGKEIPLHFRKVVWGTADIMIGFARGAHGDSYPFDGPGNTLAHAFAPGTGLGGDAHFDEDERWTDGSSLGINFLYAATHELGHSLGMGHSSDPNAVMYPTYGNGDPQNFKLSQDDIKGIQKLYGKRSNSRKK
Nature of the data set: Human off-target inhibition assay, MMP-7. The format is biochemical.

SMILES strings stand for the structures. Read-outs that look alike come from different tables or passages of the source. Some results are limits rather than exact numbers.

T1 sequence (Q02RJ6 198-498): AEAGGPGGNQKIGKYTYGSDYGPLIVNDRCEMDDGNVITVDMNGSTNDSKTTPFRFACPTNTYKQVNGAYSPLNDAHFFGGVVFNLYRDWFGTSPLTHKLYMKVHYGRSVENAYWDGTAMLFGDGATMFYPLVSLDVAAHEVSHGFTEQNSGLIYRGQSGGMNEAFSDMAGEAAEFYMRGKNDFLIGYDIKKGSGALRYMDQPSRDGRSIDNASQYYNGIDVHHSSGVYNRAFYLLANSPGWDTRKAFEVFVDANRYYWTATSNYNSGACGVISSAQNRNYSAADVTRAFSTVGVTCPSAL
Sequence of HDAC-3 (O15379 whole entry): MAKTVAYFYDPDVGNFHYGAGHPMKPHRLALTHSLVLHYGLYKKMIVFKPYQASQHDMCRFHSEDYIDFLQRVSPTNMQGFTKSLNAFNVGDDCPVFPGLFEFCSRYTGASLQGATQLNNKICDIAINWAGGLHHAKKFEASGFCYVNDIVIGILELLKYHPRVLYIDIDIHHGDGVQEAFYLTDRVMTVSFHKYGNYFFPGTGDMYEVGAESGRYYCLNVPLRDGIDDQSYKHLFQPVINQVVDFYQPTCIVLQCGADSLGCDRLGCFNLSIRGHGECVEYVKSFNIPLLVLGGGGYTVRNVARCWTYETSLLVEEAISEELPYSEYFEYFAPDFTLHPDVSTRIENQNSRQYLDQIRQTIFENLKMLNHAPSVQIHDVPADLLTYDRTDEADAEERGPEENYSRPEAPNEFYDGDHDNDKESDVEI
Sequence of HDAC-3 (Q9Y618 395-489 partner limits assumed): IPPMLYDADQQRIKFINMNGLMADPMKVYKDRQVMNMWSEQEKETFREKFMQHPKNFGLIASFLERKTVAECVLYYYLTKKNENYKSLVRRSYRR
Sequence of ADAM17 (P78536 215-824): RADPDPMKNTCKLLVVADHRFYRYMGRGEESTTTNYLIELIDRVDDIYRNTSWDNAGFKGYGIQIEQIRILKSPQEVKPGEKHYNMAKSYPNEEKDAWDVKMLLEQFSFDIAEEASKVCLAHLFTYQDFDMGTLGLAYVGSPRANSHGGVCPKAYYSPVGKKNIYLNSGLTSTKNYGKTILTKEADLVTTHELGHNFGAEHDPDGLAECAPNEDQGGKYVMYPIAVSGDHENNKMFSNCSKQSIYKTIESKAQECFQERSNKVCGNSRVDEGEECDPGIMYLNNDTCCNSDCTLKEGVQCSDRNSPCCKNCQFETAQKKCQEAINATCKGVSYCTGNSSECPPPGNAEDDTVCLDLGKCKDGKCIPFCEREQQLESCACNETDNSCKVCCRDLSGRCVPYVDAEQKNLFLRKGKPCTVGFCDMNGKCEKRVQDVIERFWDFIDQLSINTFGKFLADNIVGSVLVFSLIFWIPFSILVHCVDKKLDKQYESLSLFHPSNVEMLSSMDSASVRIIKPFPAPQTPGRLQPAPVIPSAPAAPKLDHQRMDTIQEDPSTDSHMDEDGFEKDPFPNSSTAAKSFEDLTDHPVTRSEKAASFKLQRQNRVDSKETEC

Turning to `O=C(O)CC1(C(=O)NCc2nc3ccccc3s2)Cc2ccccc2C1` [Compound 1], at LasB [1], the IC50 (commonly the concentration needed to halve the response being measured) was 0.159 µM.

Turning to `O=C(CC(=O)Nc1ccc(Cl)c(Cl)c1)NO` [Compound 2], at LasB [1], the IC50 is 17.4 µM.

With `O=C(Nc1nc2ccccc2s1)C(S)Cc1ccccc1` (stereo not shown) [Compound 23, N-(Benzo[d]thiazol-2-yl)-2-mercapto-3-phenylpropanamide], in data set [2], the viability – broadly, a read-out of living cells in per cent, often relative to untreated cells – at 50 µM was found to be 80 ± 15%. Moreover, the “effect on viability of A549 cells treated with wt PA14 supernatant (in words)” value in data set [3] is given as “Dose-dependent effect”. The survival of larvae in the data set on G. mellonella larvae is reported as 70 ± 5%. Further, the inhibition at 100 µM on MMP-8, against MMP-1, on MMP-2, against MMP-3, against MMP-14 and on MMP-7 was less than 10% each time. The IC50 in the data set “Cytotoxicity assay, A549” is more than 100 µM; on HDAC-3, more than 100 µM; in data set [4], more than 100 µM; in [6], more than 100 µM; at HDAC-8, more than 100 µM; against LasB [7], 0.7 ± 0.1 µM. Inhibition on ADAM17 was half-maximal at 10.4 ± 0.2 µM (IC50). Further, in data set [5], the “effect on A549 cells treated with ΔlasB PA14 supernatant (in words)” value is recorded as “no effect”. Also, in the data set on P. aeruginosa PA14 (Pseudomonas aeruginosa, P. aeruginosa PA14), the MIC (usually the smallest concentration in the dilution series that meets the test's criterion for growth inhibition) is more than 100 µM. For the same compound, the “reduction of bacterial growth” value in the data set with P. aeruginosa PA14 (at 100 μM) was “less than 10%”. For the same compound, affinity at ColH-PD was put at a Ki of 0.1 ± 0.01 µM. Further, the Survival rate % in the data set with zebrafish embryos (2 µM) was 100%; in the data set on zebrafish embryos (30 µM) it was 70%; in the data set with zebrafish embryos (100 µM), 0%. The “toxicity (larvae with toxicity signs)” value with zebrafish embryos (30 µM, Table S2) is 30%. Further, the embryo observation result in the data set with zebrafish embryos (50 µM, 2 dpf) is reported as “imp. dev”; with zebrafish embryos (50 µM, 3 dpf), 5 imp. dev; in the data set with zebrafish embryos (50 µM, 4 dpf) it was 5 imp. dev; in the data set with zebrafish embryos (50 µM, 5 dpf), 5 imp. dev; with zebrafish embryos (100 µM, 2 dpf), “imp. dev”; with zebrafish embryos (100 µM, 3 dpf), 5 imp. dev. In addition, the embryo observation is 5 imp. dev in the data set on zebrafish embryos (100 µM, 4 dpf) and 5 imp. dev in the data set on zebrafish embryos (100 µM, 5 dpf). For the same compound, the “maximum tolerated concentration (MTC)” value with zebrafish embryos (zebrafish embryos, until 120 hpf) is not above 30 µM. The “ligand efficiency (LE)” value at LasB [7] (calculated from LasB activity) is given as 0.48. In addition, the “lipophilic ligand efficiency (LLE)” value at LasB [7] (calculated from LasB activity) is listed as 3.21.

As to `Cl.O=C(O)CCP(CCC(=O)O)CCC(=O)O` [TCEP, Tris(2-carboxyethyl)phosphine hydrochloride], the “viability of A549 cells” value in the data set on A549 cells was “no effect on cell viability”. Moreover, the “activity of pure LasB” value on LasB [7] (0.6 mM TCEP and lower) is “no inhibition”; on LasB [7] (5 mM and […] TCEP) it was “completely lost”.

The values are drawn from PMC9112332, “Structure-Based Design of α-Substituted Mercaptoacetamides as Inhibitors of the Virulence Factor LasB from Pseudomonas aeruginosa” (ACS Infectious Diseases, 2022).
